Like-named read-outs stand apart in the source and are kept apart here.
Tests used:
Type in all cases: binding, sheep
Conditions in all cases: Cross-reactants at 100 ng/ml, 1000ng/ml, single level of cross reactants
Antibody to Immunogen V = tested on: Antibody to Immunogen V
Method: (§1) The wells of an enhanced binding 96 well polystyrene microtiter plate were coated with IgG fraction of antiserum raised to Immunogen VI, diluted in 10mM Tris, pH8.5 (125µl/well). The appropriate antibody coating dilution was determined using standard ELISA checkerboard techniques. The plate was incubated overnight at 4°C, washed 4 times over 10 minutes with Tris buffered saline containing Tween 20 (TBST) and tapped dry. Standard solutions of RCS-4 were prepared in TBST at 0, 0.3125, 0.625, 1.25, 2.5, 5, 10 and 20ng/ml, and 50µl of each was added to the appropriate wells (see figure 1). 75µl of conjugate (appropriate hapten-HRP) diluted in Tris buffer (pH 7.2) containing EDTA, D-mannitol, sucrose, thimerosal and BSA, was added to each of the wells. The appropriate dilution of conjugate was also determined using standard ELISA checkerboard techniques. The plate was incubated at 25°C for 1 hour. Excess unbound conjugate was removed by washing 6 times over a 10 minute period with TBST. 125µl oftetramethylbenzidine (TMB) substrate solution was added to each well of the plate that was then incubated for 20 minutes in the dark at room temperature. The reaction was terminated by addition of 125µl 0.2M H2SO4 to each well. The absorbance was then measured at 450nm using a microtiter plate reader. The data are inputted to a computer program called 'KC Junior'. It is a 4 parameter fit curve and allow the calculatation of concentrations between the standard runs. This program is used to calculate the IC50s by dividing the 0ng/ml OD value by 2 and obtaining the concentration value from the curve for this OD.
In a similar manner to that described above, the wells of a 96-well microtiter plate were coated with the IgG fraction of the antiserum raised to Immunogens IV, V, VII or VIII. Standard solutions (RCS-8 for Immunogen V) were prepared in TBST at 0, 1.25, 2.5, 5, 10, 20, 40 and 80ng/ml and conjugate was employed as detection reagent.
(§2) The data set our in Tables 3 and 4 are generated using antibodies raised against the indicated Immunogens in a competitive binding assay with the indicated tracers, using the indicated standards: Table 2
(§3) In order to determine the specificity of the competitive ELISAs, standard solutions of a range of structurally similar synthetic cannabinoids and their metabolites were prepared in TBST. Using the calibration curves generated and employing a single level of cross reactants, these were used to determine the cross-reactivity of each immunoassay with these substances. Table 4: Cross reactivity of the competitive ELISAs for synthetic cannabinoids and their metabolites

[1] = tested on: Antibody to Immunogen III
Method: as §1
In a similar manner to that described above, the wells of a 96-well microtiter plate were coated with the IgG fraction of the antiserum raised to Immunogens I, II or III. Standard solutions (JWH-250 for Immunogen III) were applied at 0, 0.625, 1.25, 2.5, 5, 10, 20 and 40ng/ml and conjugate was employed as detection reagent.
as §2, §3

Antibody to Immunogen VI = tested on: Antibody to Immunogen VI
Method: as §1, §2, §3

[2] = listed as JWH-164 (JWH-081 7-methoxynaphthyl isomer)

## CCCn1c(C)c(C(=O)c2cccc3ccccc23)c2ccccc21 [JWH-015]
Antibody to Immunogen V
  %B/B0: 73.42%
[1]
  %B/B0: 93.97%
Antibody to Immunogen VI
  %B/B0: 77.06%

## CCCCn1c(C)c(C(=O)c2cccc3ccccc23)c2ccccc21 [JWH-016]
Antibody to Immunogen V
  %B/B0: 69.38%
[1]
  %B/B0: 82.93%
Antibody to Immunogen VI
  %B/B0: 80.10%

## CCCCCn1cc(C(=O)c2cccc3ccccc23)c2ccc(OC)cc21 [JWH-018 6-methoxyindole analogue]
Antibody to Immunogen V
  %B/B0: 73.60%
[1]
  %B/B0: 85.67%
Antibody to Immunogen VI
  %B/B0: 86.92%

## CC(C)(C)Cn1cc(C(=O)c2cccc3ccccc23)c2ccccc21 [JWH-018 N-(2,2-dimethylpropyl) isomer]
Antibody to Immunogen V
  %B/B0: 67.14%
[1]
  %B/B0: 95.58%
Antibody to Immunogen VI
  %B/B0: 78.92%

## O=C(c1cccc2ccccc12)c1cn(CCCCCO)c2ccccc12 [JWH-018 N-(5-hydroxypentyl) metabo lite]
Antibody to Immunogen V
  %B/B0: 70.25%
[1]
  %B/B0: 89.74%
Antibody to Immunogen VI
  %B/B0: 61.67%

## O=C(O)CCCCn1cc(C(=O)c2cccc3ccccc23)c2ccccc21 [JWH-018 N-pentanoic acid metabolite]
Antibody to Immunogen V
  %B/B0: 72.42%
[1]
  %B/B0: 100.98%
Antibody to Immunogen VI
  %B/B0: 65.90%

## CCCCCn1cc(C(=O)c2cccc3ccccc23)c2ccccc21 [JWH-018]
Antibody to Immunogen V
  %B/B0: 78.01%
[1]
  %B/B0: 78.39%
Antibody to Immunogen VI
  %B/B0: 82.47%

## CCCCCCn1cc(C(=O)c2cccc3ccccc23)c2ccccc21 [JWH-019]
Antibody to Immunogen V
  %B/B0: 70.25%
[1]
  %B/B0: 88.06%
Antibody to Immunogen VI
  %B/B0: 78.02%

## CCCCCCCn1cc(C(=O)c2cccc3ccccc23)c2ccccc21 [JWH-020]
Antibody to Immunogen V
  %B/B0: 71.43%
[1]
  %B/B0: 93.85%
Antibody to Immunogen VI
  %B/B0: 82.41%

## C=CCCCn1cc(C(=O)c2cccc3ccccc23)c2ccccc21 [JWH-022]
Antibody to Immunogen V
  %B/B0: 61.86%
[1]
  %B/B0: 76.82%
Antibody to Immunogen VI
  %B/B0: 75.42%

## CCCCCn1ccc(C(=O)c2cccc3ccccc23)c1 [JWH-030]
Antibody to Immunogen V
  %B/B0: 77.27%
[1]
  %B/B0: 95.34%
Antibody to Immunogen VI
  %B/B0: 86.70%

## CCCCn1cc(C(=O)c2ccc(C)c3ccccc23)c2ccccc21 [JWH-073 4-methylnaphthyl analogue]
Antibody to Immunogen V
  %B/B0: 65.84%
[1]
  %B/B0: 78.03%
Antibody to Immunogen VI
  %B/B0: 70.97%

## CC(O)CCn1cc(C(=O)c2cccc3ccccc23)c2ccccc21 (stereo not drawn) [JWH-073 N-(3-hydroxybutyl) metabolite]
Antibody to Immunogen V
  %B/B0: 63.79%
[1]
  %B/B0: 94.05%
Antibody to Immunogen VI
  %B/B0: 72.55%

## O=C(c1cccc2ccccc12)c1cn(CCCCO)c2ccccc12 [JWH-073 N-(4-hydroxybutyl) metabolite]
Antibody to Immunogen V
  %B/B0: 63.73%
[1]
  %B/B0: 87.63%
Antibody to Immunogen VI
  %B/B0: 70.57%

## O=C(O)CCCn1cc(C(=O)c2cccc3ccccc23)c2ccccc21 [JWH-073 N-butanoic acid metabolite]
Antibody to Immunogen V
  %B/B0: 70.75%
[1]
  %B/B0: 97.45%
Antibody to Immunogen VI
  %B/B0: 76.27%

## CCCCn1cc(C(=O)c2cccc3ccccc23)c2ccccc21 [JWH-073]
Antibody to Immunogen V
  %B/B0: 66.65%
[1]
  %B/B0: 81.25%
Antibody to Immunogen VI
  %B/B0: 74.80%

## CCCCCn1cc(C(=O)c2c(OC)ccc3ccccc23)c2ccccc21 [JWH-081 2-methoxynaphthyl isomer or (JWH-267)]
Antibody to Immunogen V
  %B/B0: 70.37%
[1]
  %B/B0: 85.59%
Antibody to Immunogen VI
  %B/B0: 86.87%

## CCCCCn1cc(C(=O)c2cccc3c(OC)cccc23)c2ccccc21 [JWH-081 5-methoxynaphthyl isomer]
Antibody to Immunogen V
  %B/B0: 90.40%
[1]
  %B/B0: 76.35%
Antibody to Immunogen VI
  %B/B0: 77.74%

## CCCCCn1cc(C(=O)c2cccc3ccc(OC)cc23)c2ccccc21 [JWH-081 7-methoxynaphthyl isomer (JWH-164)]
Antibody to Immunogen V
  %B/B0: 87.25%
Antibody to Immunogen V; [2]
  %B/B0: 82.81%
[1]
  %B/B0: 75.18%
[1]; [2]
  %B/B0: 72.63%
Antibody to Immunogen VI
  %B/B0: 92.27%
Antibody to Immunogen VI; [2]
  %B/B0: 89.29%

## COc1ccc(C(=O)c2cn(CCCCCO)c3ccccc23)c2ccccc12 [JWH-081 N-(5-hydroxypentyl) metabolite]
Antibody to Immunogen V
  %B/B0: 72.78%
[1]
  %B/B0: 76.44%
Antibody to Immunogen VI
  %B/B0: 69.47%

## CCCCCn1c(C)c(C(=O)c2ccc(OC)c3ccccc23)c2ccccc21 [JWH-098]
Antibody to Immunogen V
  %B/B0: 81.09%
[1]
  %B/B0: 74.71%
Antibody to Immunogen VI
  %B/B0: 78.96%

## Cc1ccc(C(=O)c2cn(CCCCCO)c3ccccc23)c2ccccc12 [JWH-122 N-(5-hydroxypentyl) metabo lite]
Antibody to Immunogen V
  %B/B0: 68.77%
[1]
  %B/B0: 81.72%
Antibody to Immunogen VI
  %B/B0: 71.84%

## CCCCCn1cc(C(=O)c2ccc(C)c3ccccc23)c2ccccc21 [JWH-122]
Antibody to Immunogen V
  %B/B0: 69.63%
[1]
  %B/B0: 69.90%
Antibody to Immunogen VI
  %B/B0: 75.29%

## CCCC(C)(C)c1ccc2c(c1)OC(C)(C)[C@@H]1CC=C(C)C[C@@H]21 [JWH-133]
Antibody to Immunogen V
  %B/B0: 90.40%
[1]
  %B/B0: 97.40%
Antibody to Immunogen VI
  %B/B0: 93.73%

## CCCCCn1cc(C(=O)c2ccc(CCC)c3ccccc23)c2ccccc21 [JWH-182]
Antibody to Immunogen V
  %B/B0: 82.38%
[1]
  %B/B0: 76.14%
Antibody to Immunogen VI
  %B/B0: 85.69%

## O=C(c1ccc2ccccc2c1)c1cn(CCN2CCOCC2)c2ccccc12 [JWH-200 2'-naphthyl isomer]
Antibody to Immunogen V
  %B/B0: 75.36%
[1]
  %B/B0: 99.13%
Antibody to Immunogen VI
  %B/B0: 20.66%

## O=C(c1cccc2ccccc12)c1cn(CCN2CCOCC2)c2cccc(O)c12 [JWH-200 4-hydroxyindole metabolite]
Antibody to Immunogen V
  %B/B0: 74.79%
[1]
  %B/B0: 95.93%
Antibody to Immunogen VI
  %B/B0: 90.44%

## O=C(c1cccc2ccccc12)c1cn(CCN2CCOCC2)c2ccc(O)cc12 [JWH-200 5-hydroxyindole metabolite]
Antibody to Immunogen V
  %B/B0: 82.38%
[1]
  %B/B0: 96.49%
Antibody to Immunogen VI
  %B/B0: 93.65%

## O=C(c1cccc2ccccc12)c1cn(CCN2CCOCC2)c2cc(O)ccc12 [JWH-200 6-hydroxyindole metabolite]
Antibody to Immunogen V
  %B/B0: 69.91%
[1]
  %B/B0: 95.45%
Antibody to Immunogen VI
  %B/B0: 88.68%

## CCCCCn1cc(C(=O)Cc2ccc(OC)cc2)c2ccccc21 [JWH-201]
Antibody to Immunogen V
  %B/B0: 68.62%
[1]
  %B/B0: 27.93%
Antibody to Immunogen VI
  %B/B0: 69.32%

## CCCCCn1cc(C(=O)Cc2ccccc2Cl)c2ccccc21 [JWH-203]
Antibody to Immunogen V
  %B/B0: 15.33%
[1]
  %B/B0: 18.15%
Antibody to Immunogen VI
  %B/B0: 83.09%

## CCCCCn1cc(C(=O)Cc2ccc(Cl)cc2)c2ccccc21 [JWH-206 (JWH-203 4-chloro isomer)]
Antibody to Immunogen V
  %B/B0: 51.00%
[1]
  %B/B0: 26.33%
Antibody to Immunogen VI
  %B/B0: 78.35%

## CCCCCn1cc(C(=O)c2c(CC)ccc3ccccc23)c2ccccc21 [JWH-210 2-ethylnaphthyl isomer]
Antibody to Immunogen V
  %B/B0: 85.10%
[1]
  %B/B0: 85.02%
Antibody to Immunogen VI
  %B/B0: 89.90%

## CCCCCn1cc(C(=O)c2ccc(CC)c3ccccc23)c2cc(O)ccc21 [JWH-210 5-hydroxyindole metabolite]
Antibody to Immunogen V
  %B/B0: 79.94%
[1]
  %B/B0: 87.01%
Antibody to Immunogen VI
  %B/B0: 86.92%

Source: patent EP2698384A1, “Detection of synthetic cannabinoids” (priority 2012, dated 2014)
